Measured values as given in patent US12507703B2, “Methods, devices and compositions for preserving human milk” (The Trustees of Princeton University, priority 2023, dated 2025).
“And” between values parts separate entries of the source, which are not always exact repeats. Identical values can stand only once. Where a SMILES comes first, the peptide text is derived from it.

System: lipase
Assay: Lipase/lipolysis assay (EnzChek Lipase Substrate, quenched BODIPY-fatty acid conjugate) on stored human milk; also: test concentration or dose not given here

Compound	Lipase (RFU)
CC(=O)O[C@H]1CC(=O)OC(C)(C)[C@@H]2CC(=O)[C@]3(C)[C@H](CC[C@@]4(C)[C@H](c5ccoc5)OC(=O)[C@H]5O[C@]543)[C@@]12C [Nomilin]	989.5541 RFU
CC(=O)OC(C)(C)/C=C/C(=O)[C@](C)(O)[C@H]1[C@H](O)C[C@@]2(C)[C@@H]3CC=C4[C@H](C[C@H](O)C(=O)C4(C)C)[C@]3(C)C(=O)C[C@]12C [Cucurbitacin B]	789.0588 RFU
N#CCc1ccc(O)cc1 [4-Hydroxybenzyl cyanide]	1050.204 RFU
Lactate	1249.686 RFU
C[C@@H]1O[C@@H](O[C@H]2[C@H](Oc3c(-c4ccc(O)cc4)oc4cc(O)cc(O)c4c3=O)O[C@H](CO)[C@@H](O)[C@@H]2O)[C@H](O)[C@H](O)[C@H]1O [Kaempferol 3-neohesperidoside]	1019.446 RFU
O=c1[nH]c2ccccc2o1 [Compound 2-Benzoxazolinone, 2-Benzoxazolinone]	985.9488 RFU
CC(=O)OC(C)(C)/C=C/C(=O)[C@](C)(O)[C@H]1[C@H](O)C[C@@]2(C)[C@@H]3CC=C4[C@@H](C=C(O)C(=O)C4(C)C)[C@]3(C)C(=O)C[C@]12C [Cucurbitacin E]	641.6726 RFU
β-Alanine	882.8696 RFU and 1205.931 RFU
COc1c(-c2ccccc2)oc2cc(O)cc(O)c2c1=O [Compound 3-O-Methylgalangin]	819.4334 RFU
NC(N)=NCCCC[C@H](N)C(=O)O [H-HoArg-OH]	745.4822 RFU
C[C@@H]1CC[C@@]2(OC1)O[C@H]1C[C@H]3[C@@H]4CC[C@@H]5C[C@@H](O)CC[C@]5(C)[C@H]4CC[C@]3(C)[C@H]1[C@@H]2C [Smilagenin]	790.1194 RFU
COC1=C(OC)C(=O)C(C/C=C(\C)CC/C=C(\C)CC/C=C(\C)CC/C=C(\C)CC/C=C(\C)CC/C=C(\C)CC/C=C(\C)CC/C=C(\C)CCC=C(C)C)=C(C)C1=O [Coenzyme Q9]	1106.833 RFU
COc1cc(CCN)ccc1O.Cl [3-Methoxytyramine (hydrochloride)]	963.841 RFU
OCCc1c[nH]c2ccc(O)cc12 [5-Hydroxytryptophol]	681.6533 RFU
N[C@@H](CCC(=O)N[C@@H](Cc1ccccc1)C(=O)O)C(=O)O [γ-Glu-Phe]	1077.051 RFU
OC[C@H]1O[C@@](CO)(O[C@H]2O[C@H](CO[C@@H]3O[C@H](CO)[C@@H](O)[C@H](O)[C@H]3O)[C@@H](O)[C@H](O)[C@H]2O)[C@@H](O)[C@@H]1O [Gentianose]	1100.387 RFU
CC1(C)[C@@H](O)CC[C@]2(C)[C@H]3C(=O)C=C4[C@H]5C[C@@](C)(C(=O)O)CC[C@]5(C)CC[C@@]4(C)[C@]3(C)CC[C@@H]12 [18α-Glycyrrhetinic acid]	794.4219 RFU
CC(=O)O[C@@H]1CC[C@@]2(C)[C@@H](CC[C@]3(C)[C@@H]2CC=C2[C@@H]4[C@@H](C)[C@H](C)CC[C@]4(C)CC[C@]23C)[C@@]1(C)C(=O)O [3-Acetyl-beta-boswellic acid]	752.9436 RFU
CC(C)=CCc1c2ccoc2c(O)c2oc(=O)ccc12 [Alloimperatorin]	601.2746 RFU
O=C(O)[C@@H]1C[C@@H](O)CN1 [trans-4-Hydroxy L-Proline]	608.0856 RFU
O=C(O)/C=C(\CC(=O)O)C(=O)O [trans-Aconitic acid]	946.0721 RFU
NCC(=O)N[C@@H](CC(=O)O)C(=O)O [Glycyl-L-Aspartic] (H-Gly-Asp-OH)	903.5873 RFU
Gluconate (Calcium)	840.1946 RFU

Compound	Lipase (RFU)
CC[C@H]1[C@@H]2C[C@H]3[C@@H]4N(C)c5ccccc5[C@]45C[C@@H]([C@H]2[C@H]5O)N3[C@@H]1O [Ajmaline]	916.1038 RFU
C=C(CCC=C(C)C)[C@H]1CC[C@]2(C)[C@@H]1[C@H](O)C[C@@H]1[C@@]3(C)CC[C@H](O)C(C)(C)[C@@H]3[C@@H](O[C@@H]3O[C@H](CO)[C@@H](O)[C@H](O)[C@H]3O[C@@H]3O[C@@H](C)[C@H](O)[C@@H](O)[C@H]3O)C[C@]12C [Ginsenoside Rg6]	737.5989 RFU
COc1cc2ccc(=O)oc2c(OC)c1O [Isofraxidin]	929.2612 RFU
NC(Cc1c[nH]c2ccccc12)C(=O)O (racemic) [DL-Tryptophan]	935.3545 RFU
CC/C=C\C/C=C\C/C=C\C/C=C\C/C=C\CCCCCC(=O)O [Docosapentaenoic acid (22n-3)]	931.501 RFU
COc1ccc2c(=O)c(-c3ccc(O)cc3)coc2c1 [Isoformononetin]	1355.098 RFU
NCC(=O)N[C@@H](CCC(=O)O)C(=O)O [Glycyl-L-Glutamic Acid] (H-Gly-Glu-OH)	846.2286 RFU
Glycogen	745.3227 RFU
C[N+](C)(C)CCOP(=O)([O-])OP(=O)([O-])OC[C@H]1O[C@@H](n2ccc(N)nc2=O)[C@H](O)[C@@H]1O.[Na+] [Citicoline (sodium)]	965.9573 RFU
OC[C@H]1O[C@H](OC[C@H]2O[C@H](O[C@H]3[C@H](O)[C@@H](O)C(O)O[C@@H]3CO)[C@H](O)[C@@H](O)[C@@H]2O)[C@H](O)[C@@H](O)[C@@H]1O (stereo partly drawn) [D-Panose]	982.4149 RFU
CC(CC(=O)C[C@@H](C)[C@H]1CC(=O)[C@@]2(C)C3=C(C(=O)C[C@]12C)[C@@]1(C)CC[C@H](O)C(C)(C)[C@@H]1C[C@@H]3O)C(=O)O (some centres unmarked) [Ganoderic acid B]	879.1619 RFU
CC(O)C(=O)[O-].CC(O)C(=O)[O-].[Ca+2] (centres unmarked) [Lactate (calcium)]	763.893 RFU
O=C(/C=C/c1ccc(O)cc1)NCCc1ccc(O)cc1 [N-p-trans-Coumaroyltyramine]	1082.731 RFU
O=C(O)[C@@H](O)[C@H](O)C(=O)O [D-Tartaric Acid]	685.8128 RFU
O=C(O)c1cccc(O)c1O [Pyrocatechuic acid]	896.9439 RFU
N#C[C@H](O[C@@H]1O[C@H](CO[C@@H]2O[C@H](CO)[C@@H](O)[C@H](O)[C@H]2O)[C@@H](O)[C@H](O)[C@H]1O)c1ccccc1 [Amygdalin]	1036.373 RFU and 736.6201 RFU
OC[C@@H](O)[C@H](O)[C@H](O)[C@@H](O)CO [Dulcitol]	642.9411 RFU
CCCCCCCCCCC/C=C\CCCCC(=O)O [Petroselinic acid]	886.6723 RFU
O=C1O[C@H]([C@@H](O)CO)[C@H](O)[C@@H]1O [L-Gulono-1,4-lactone]	1139.877 RFU
O=C1C=C2C(=CCOC2O)O1 (centres unmarked) [Patulin]	1145.028 RFU
O=C1c2ccc(O)cc2OCC1c1ccc(O)cc1 (centres unmarked) [Dihydrodaidzein]	682.5875 RFU
N[C@@H](Cc1ccc(O)c(I)c1)C(=O)O [H-Tyr(3-I)-OH]	847.3153 RFU
Cl.O=C(O)Cc1cnc[nH]1 [Imidazoleacetic acid (hydrochloride)]	807.4109 RFU

Compound	Lipase (RFU)
Nc1nc2c(ncn2[C@@H]2O[C@H](COP(=O)([O-])[O-])[C@@H](O)[C@H]2O)c(=O)[nH]1.[Na+].[Na+] [5′-Guanylic acid (disodium salt)]	910.9839 RFU
C[N+](C)(C)[O-] [Trimethylamine N-oxide]	948.4231 RFU and 1147.152 RFU
Oc1cc(O)c2c(c1)O[C@H](c1cc(O)c(O)c(O)c1)[C@@H](O)C2 [(+)-Gallocatechin]	1096.904 RFU
O=C1O[C@H]([C@H](O)CO)C([O-])=C1O.[Na+] [Sodium erythorbate]	904.5416 RFU
C[C@@H]1O[C@@H](O[C@H]2C[C@@H](O)[C@]3(CO)[C@H]4[C@H](O)C[C@]5(C)[C@@H](C6=CC(=O)OC6)CC[C@]5(O)[C@@H]4CC[C@]3(O)C2)[C@H](O)[C@H](O)[C@H]1O.O.O.O.O.O.O.O.O [Ouabain (Octahydrate)]	901.7077 RFU
NC(=O)c1ccc[n+]([C@@H]2O[C@H](CO)[C@@H](O)[C@H]2O)c1.[Cl-] [Nicotinamide riboside (chloride)]	991.823 RFU
N=C(N)NCCC[C@@H](N)C(=O)O [D-Arginine]	1215.288 RFU
O=C(O)c1ccccc1 [Benzoic Acid]	1003.567 RFU and 1115.708 RFU and 946.6732 RFU
Nc1nc2nc[nH]c2c(=O)[nH]1 [Guanine]	909.1174 RFU
Cc1cccc(C=O)c1 [m-Tolualdehyde]	859.0901 RFU
C[n+]1cn([C@@H]2O[C@H](CO)[C@@H](O)[C@H]2O)c2nc(N)[nH]c(=O)c21 [Compound 7-Methylguanosine, 7-Methylguanosine]	974.6149 RFU
O=C(O)C(F)(F)F.O=C1N[C@@H](Cc2cnc[nH]2)C(=O)N2CCC[C@@H]12 [Cyclo(his-pro) (TFA)]	956.1787 RFU
CC(C)=CCC/C(C)=C/CC/C(C)=C/CC/C(C)=C/CC1=C(C)C(=O)c2ccccc2C1=O [Menaquinone-4]	987.2266 RFU
O.O=C(O)c1cc(O)c(O)c(O)c1 [Gallic acid (hydrate)]	709.0148 RFU
Cc1ccc(OS(=O)(=O)[O-])cc1.[K+] [p-Cresyl sulfate (potassium)]	825.569 RFU
CC(C)=C1C/C=C(\C)CC/C=C(\C)CC1=O [Germacrone]	974.0245 RFU
C=C1C(=O)O[C@@H]2[C@H]3C(CO)=CC(=O)C3=C(C)C[C@H](OC(=O)Cc3ccc(O)cc3)[C@@H]12 [Lactupicrin]	995.7975 RFU
CCCCC[C@H](O)/C=C/[C@H]1[C@H](O)CC(=O)[C@@H]1C/C=C\CCCC(=O)O [Prostaglandin E2]	1264.564 RFU
COc1c(O)cc2oc(-c3ccc(O)cc3)cc(=O)c2c1O [Hispidulin]	914.8964 RFU
C[C@@]12CCc3occc3[C@H]1CC[C@@]13C[C@@H](CC[C@H]12)[C@@](O)(CO)C3 [Cafestol]	1003.112 RFU
(+)-Secoisolariciresinol	1148.179 RFU
C[C@@H]1O[C@@H](Oc2cc(O)c3c(=O)c(O)c(-c4ccc(O)cc4)oc3c2)[C@H](O)[C@H](O)[C@H]1O [Kaempferol-7-O-rhamnoside]	963.8327 RFU
